Columns and labels:
S. aureus ATCC 29213 = assay: Murine peritoneal sepsis model; format: in vivo, C57BL/6J mice; conditions: mouse, in vivo
Method: Adult C57BL/6J mice (˜18 grams, 8-10 weeks old) were used for all experiments. Mice were obtained from the Jackson Laboratory (Bar Harbour, Me., USA) and housed in the IHV SPC animal core facility. Mice were fed standard chow (Harlan Laboratories) and water ad libitum. To assess the protective potency of defensin mimetic BAS00127538, groups of 5 mice were inoculated intraperitoneally ˜10^7 CFU/mL of S. aureus ATCC 29213 in 500 μL saline solution/25% DMSO plus 4.5% (w/v) porcine gastric mucin (Sigma Chemical Co., St Louis, Mo.). Infected animals (n=5) were subsequently treated by intra-peritoneal injection 1 and 4 hours post-infection with 2.5 mg/kg of compound in 100 μL sterile saline solution plus 25% DMSO (V/V), vancomycin/lysostaphin (5 mg/kg, saline solution/25% DMSO) or vehicle (saline solution/25% DMSO) as positive and negative controls respectively. Animals were closely observed during a period of 24 hours and mice that show signs of severe sepsis were humanely euthanized. Blood samples were collected by retro-orbital puncture at the indicated intervals post-infection using lithium-heparin polystyrene tubes to prevent coagulation. Spleens were harvested aseptically, weighed and homogenized in 500 μl of sterile saline solution using an IKA T10 basic disperser (IKA, Wilmington N.C.). Whole blood samples and spleen homogenates were serially diluted and plated onto LB agar plates. Bacterial counts were determined following 24 h incubation at 37° C. and expressed as CFU per milliliter for blood and CFU per gram for spleen.
Next, a murine model for sepsis was established to evaluate the efficacy of the lead defensin mimetics as antibiotic agents in vivo. […] Mice (n=5) were inoculated intraperitoneally with S. aureus 29213 and treated 1 h and 4 h post-infection with compound BAS00127538 at 2.5 mg/kg intraperitoneally Animals were monitored for survival and blood and spleen samples were collected. Bacterial counts were determined and compared to control treatment with vancomycin/lysostaphin as measures of efficacy (FIG. 6).

[1] = system: Staphylococcus aureus ATCC 29213; assay: Antagonization assay of antibacterial activity against S. aureus; format: cell-based; conditions: for Effect of pre-incubation with D-Ala (Diacetyl-Lys-D-Ala-D-Ala) on killing of S. aureus / Effect of pre-incubation with D-Lac (diacetyl-Lys-D-ala-D-Lac) on killing of S. aureus: 1:200 molar ratio, 30 min
Method: Antagonization of the antibacterial activity of defensins against Staphylococcus aureus ATCC 29213 was carried out in a 96-well turbidimetric assay essentially as described previously (Erickson et al.). Defensins (50 μM final concentration) were pre-incubated with the following compounds for 30 min at RT: 1) 3-Lipid II at 1:1, 1:2.5 and 1:5 defensin:Lipid II molar ratios; or; 2) DiAcetyl-Lys-D-Alanine-D-Alanine and DiAcetyl-Lys-D-Alanine-D-Lac at 1:200 molar ratios. Additionally, vancomycin (500 μM) was pre-incubated separately with D-Ala and D-Lac at a 1:200 molar ratio. Following incubation, solutions were diluted two-fold in ten steps and bacteria were added. Bacterial cells were exposed to HNP1 or vancomycin for 30 min and to HD-5 for 60 min in all studies. Defensin activity was neutralized by the addition of Mueller Hinton broth. Bacterial growth was monitored for 12 hours and data were analyzed as described (Erickson et al.).
Next, the inventors examined whether the antibacterial activity of HNP-1 could be antagonized by soluble Lipid II as a measure for functional interaction. HNP-1 (50 μM) was pre-incubated with 3-Lipid II at varying molar ratios and killing of S. aureus was determined using the vCC protocol (Erickson et al.) (FIG. 3). […] Survival curves of S. aureus ATCC 29213 exposed to HNP1 (at concentrations varying two-fold from 50 to 1.25 μM). Defensin peptide was pre-incubated with 3-Lipid II at varying molar ratios for 30 min prior to addition of bacteria. Bacteria were subsequently exposed to HNP-1 for 30 min. Each curve is the mean of two separate experiments (±S.D.). Points scored as zero survival could not be plotted.
The D-Ala-D-Ala motif in the pentapeptide is the predominant binding site for vancomycin, a drug of “last resort” for many multi-drug resistant Gram-positive infections. To examine if the interaction of HNP-1 with Lipid II overlaps with the vancomycin binding site, antagonization assays were performed. Diacetyl-Lys-D-Ala-D-Ala (D-Ala) was used as […] and the non-specific peptide diacetyl-Lys-D-ala-D-Lac (D-Lac) as a control. Both vancomycin and HNP-1 were pre-incubated at a 1:200 molar ratio with both compounds for 30 min, similar to experiments with soluble Lipid II (FIG. 3). Subsequently, the inventors determined any antagonizing effects on the killing of S. aureus (FIG. 4). […] In particular, survival curves of S. aureus ATCC 29213 exposed to HNP1 (upper panel) at concentrations varying two-fold from 50 to 1.25 μM or to vancomycin (lower panel) at concentrations varying two-fold from 2 to 0.0125 μM. HNP-1 and vancomycin were pre-incubated with D-ala or D-lac at a 1:200 molar ratio for 30 min prior to addition of bacteria. Bacteria were subsequently exposed to HNP-1 or vancomycin for 30 min. Each curve is the mean of two separate experiments (±S.D.). Points scored as zero survival could not be plotted.

[2] = Surface Plasmon Resonance binding to immobilized 3-Lipid II (BIAcore); conditions: SPR, 10 μM, room temperature, 40 RUs 3-Lipid II
Method: Short-chain water-soluble Lipid II containing a lipid tail of three isoprene units was generated and purified essentially as described (Breukink, E., van Heusden, H. E., Vollmerhaus, P. J., Swiezewska, E., Brunner, L., Walker, S., Heck, A. J., and de Kruijff, B. (2003) J Biol Chem 278, 19898-19903). Typically, M. flavus vesicles (120 μmol lipid-Pi) were incubated together with 500 μmol UDP-GlcNAc, 500 μmol UDP-MurNAC-pentapeptide and 400 μmol farnesyl phosphate (3-P) in 100 mM Tris-HCl pH 8.0, 5 mM MgCl2. The incubation lasted two hours at room temperature for 3-P. The synthesis of 3-Lipid II was followed using RP-8 reversed phase TLC (Merck) developed in 75% methanol. For purification, the membranes were removed by centrifugation at 40,000×g and the supernatant was collected and loaded on a C18 HPLC column and eluted with a linear gradient from 50 mM ammonium bicarbonate to 100% methanol in 30 minutes. Farnesyl-Lipid II (3-Lipid II) eluted at approximately 60% methanol. Its identity was confirmed by mass spectroscopy.
Surface Plasmon Resonance binding experiments were carried out on a BIAcore T100 system (BIAcore Inc., Piscataway, N.Y.) at 25° C. The assay buffer was 10 mM HEPES, 150 mM NaCl, 0.05% surfactant P20, pH 7.4 (±3 mM EDTA) supplemented with 10% DMSO. […] For initial determination of binding, defensin mimetics were introduced into the flow-cells (30 μl/min) in the running buffer at 10 μM. Resonance signals were corrected for nonspecific binding by subtracting the background of the control flow-cell. After each analysis, the sensor chip surfaces were regenerated with 50 mM NaOH for 30 s at a flow rate 100 μl/min, and equilibrated with the buffer prior to next injection. For binding kinetics studies, binding isotherms were analyzed with manufacturer-supplied software for BIAcore T100.

[3] = system: Escherichia coli ATCC 25922; assay: 96-well turbidimetric antibacterial killing assay, E. coli; format: cell-based; conditions: E. coli ATCC 25922, 120 min exposure
Method: The antibacterial activity of defensin mimetics against Staphylococcus aureus ATCC 29213 and Escherichia coli 25922 was carried out in a 96-well turbidimetric assay essentially as described (Ericksen, B., Wu, Z., Lu, W., and Lehrer, R. I. (2005) Antimicrob Agents Chemother 49, 269-275) with the following modifications: compounds were exposed for 30 min to […] prior to addition of […] in 10 mM phosphate buffer containing 5% DMSO. Bacterial growth was monitored for 12 hours and data were analyzed as described (Ericksen, et al). Determination of MICs was performed by Micromyx, LLC (Kalamazoo, Mich.) according to CLSI standards (CLSI. (2009) Methods for Dilution Antimicrobial Susceptibility Tests for Bacteria That Grow Aerobically; Approved Standard—Eighth Edition.)
The inventors have previously reported on the antibacterial activity of HNP1 and all of its structurally uncompromised single alanine mutants against S. aureus (Wei, G., Pazgier, M., de Leeuw, E., Rajabi, M., Li, J., Zou, G., Jung, G., Yuan, W., Lu, W. Y., Lehrer, R. I., and Lu, W. J Biol Chem 285, 16275-16285). […] If these residues are indeed important for Lipid II binding, one would expect that replacement by alanine will not affect killing of Gram-negative bacteria. […] In particular, FIG. 12 depicts killing of E. coli by HNP-1 Lipid II single alanine mutants. Survival curves of E. coli ATCC 25922 exposed to HNP-1 or HNP-1 single alanine mutants at concentrations varying two-fold from […]. Bacteria were exposed to defensin peptides for 120 min. Each curve is the mean of two separate experiments (±S.D.). Points scored as zero survival could not be plotted.

[4] = system: Staphylococcus aureus ATCC 29213; conditions: previously reported (Wei et al., J Biol Chem 285); cited from earlier work

Compound	Efficacy in vivo in a murine model for sepsis (S. aureus ATCC 29213)	Binding of HNP-1 single alanine mutants to Lipid II compared to wild-type HNP-1 [2]	other results
c1ccc(-c2nc(N(c3ccccc3)c3ccccc3)s[n+]2-c2ccccc2)cc1 [Compound 1492-0330, 5-(diphenylamino)-2,3-diphenyl-1,2$1^5,4-thiadiazol-2-ylium]	proven effective		
CN(C)c1ccc(/C=C/c2cc(C(C)(C)C)[o+]c(C(C)(C)C)c2)cc1 [Compound 1493-0289, 2,6-di-tert-butyl-4-[(E)-2-[4-(dimethylamino)phenyl]ethenyl]-1$1^4-pyran-1-ylium]	proven effective		
Oc1ccccc1Oc1c(F)c(F)c(-c2c(F)c(F)c(Oc3ccccc3O)c(F)c2F)c(F)c1F [Compound 1611-0203, 2-{2,3,5,6-tetrafluoro-4-[2,3,5,6-tetrafluoro-4-(2-hydroxyphenoxy)phenyl]phenoxy}phenol]	proven effective		
CC[n+]1c(/C=C2C=C(/C=C/N(C)c3ccccc3)CC(C)(C)C/2)sc2ccccc21 [Compound 4090-1978, 2-{[(1E)-5,5-dimethyl-3-[(E)-2-[methyl(phenyl)amino]ethenyl]cyclohex-2-en-1-ylidene]methyl}-3-ethyl-1,3-benzothiazol-3-ium]	proven effective		
CC[n+]1c(/C=C2C=C(/C=C/C(C)=C\N(C)C)CC(C)(C)C/2)sc2ccccc21 [Compound 4090-1979, 2-{[(1E)-3-[(1E,3Z)-4-(dimethylamino)-3-methylbuta-1,3-dien-1-yl]-5,5-dimethylcyclohex-2-en-1-ylidene]methyl}-3-ethyl-1,3-benzothiazol-3-ium]	proven effective		
CCCCC[n+]1c(/C=C2\Sc3cc(NC(C)=O)ccc3N2CC)ccc2ccccc21 [Compound 4890-0291, N-[(2Z)-3-ethyl-2-[(1-pentylquinolin-1-ium-2-yl)methylidene]-1,3-benzothiazol-6-yl]acetamide]	proven effective		
CN[C@H](CC(C)C)C(=O)N[C@H]1C(=O)N[C@@H](CC(N)=O)C(=O)N[C@H]2C(=O)N[C@H]3C(=O)N[C@H](C(=O)N[C@H](C(=O)O)c4cc(O)cc(O)c4-c4cc3ccc4O)[C@H](O)c3ccc(c(Cl)c3)Oc3cc2cc(c3O[C@@H]2O[C@H](CO)[C@@H](O)[C@H](O)[C@H]2O[C@H]2C[C@](C)(N)[C@H](O)[C@H](C)O2)Oc2ccc(cc2Cl)[C@H]1O [Vancomycin, vancomycin]			Effect of pre-incubation with D-Ala (Diacetyl-Lys-D-Ala-D-Ala) on killing of S. aureus [1]: specifically inhibited the killing; Effect of pre-incubation with D-Lac (diacetyl-Lys-D-ala-D-Lac) on killing of S. aureus [1]: not altered; Killing of S. aureus ([1]; without antagonist, 30 min exposure): very effectively
Arg5: HNP-1 single alanine mutant, Arg5 replaced by alanine		did not affect binding	
Arg15: HNP-1 single alanine mutant, Arg15 replaced by alanine		significant reduction of binding	Bactericidal activity against E. coli relative to wild-type HNP-1 [3]: exception; Killing of S. aureus by HNP-1 single alanine mutants [4]: severely compromised
Gly23: HNP-1 single alanine mutant, Gly23 replaced by alanine		did not affect binding	
HNP-1 R24A mutant: HNP-1 single alanine mutant, Arg24 replaced by alanine		maintained significant binding	
HNP-1: α-defensin Human Neutrophil Peptide 1, chemically synthesized, wild-type			Bactericidal activity after pre-incubation with 3-Lipid II ([1]; 1:1 molar ratio, 30 min pre-incubation, S. aureus): reduced by one order of magnitude; Effect of pre-incubation with D-Ala (Diacetyl-Lys-D-Ala-D-Ala) on killing of S. aureus [1]: not competitively inhibited; Effect of pre-incubation with D-Lac (diacetyl-Lys-D-ala-D-Lac) on killing of S. aureus [1]: not competitively inhibited
Ile10: HNP-1 single alanine mutant, Ile10 replaced by alanine		did not affect binding	

— US9351963B2, “Defensin-like molecules as novel antimicrobial agents” (UNIVERSITY OF MARYLAND, BALTIMORE, priority 2010, dated 2016)
